Assay results reported in publication PMC11768739 (Viruses, 2025).
Read-outs that look alike come from different tables or passages of the source.

Legend:
EV68-3C protease [1] = molecular target: T1, EV68-3C protease (enterovirus D68, UniProt A1E4A3); test: FRET peptide cleavage assay (DABCYL/EDANS 10-mer, 2C/3A site); assay type: biochemical
EV68-3C protease [2] = molecular target: T1, EV68-3C protease; test: as above; assay type: biochemical; conditions: covalent (irreversible); 60 min preincubation; 25 nM enzyme; 10 μM substrate; 50 mM HEPES pH 7.5, 100 mM NaCl, 3% DMSO; unreliable is not stated

T1 sequence (A1E4A3 entry or part of it): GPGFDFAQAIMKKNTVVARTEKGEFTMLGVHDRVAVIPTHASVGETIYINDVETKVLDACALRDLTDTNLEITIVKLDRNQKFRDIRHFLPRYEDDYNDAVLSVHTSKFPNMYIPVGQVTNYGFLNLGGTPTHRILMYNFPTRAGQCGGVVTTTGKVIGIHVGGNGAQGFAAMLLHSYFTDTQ

Which IC50 (EV68-3C protease [1]) does the source give for `COc1cccc2[nH]c(C(=O)N[C@@H](CC(C)C)C(=O)N[C@@H](C[C@@H]3CCNC3=O)C(=O)CO)cc12` [PF-00835231] here?
The IC50 was 1800 ± 200 nM.

For `Cn1cnc(Cn2c(=O)[nH]/c(=N\c3cc4cn(C)nc4cc3Cl)n(Cc3cc(F)c(F)cc3F)c2=O)n1` [ensitrelvir], which IC50 (EV68-3C protease [1]) is on record?
The IC50 was > 10000 nM.

With `CC(C)(C)[C@H](NC(=O)C(F)(F)F)C(=O)N1C[C@H]2[C@@H]([C@H]1C(=O)N[C@H](C#N)C[C@@H]1CCNC1=O)C2(C)C` [nirmatrelvir] as the compound, how does the IC50 (EV68-3C protease [1]) read?
The IC50 was > 10000 nM.

For `CCOC(=O)/C=C/[C@H](C[C@@H]1CCNC1=O)NC(=O)[C@@H](CC(=O)[C@@H](NC(=O)c1cc(C)on1)C(C)C)Cc1ccc(F)cc1` [rupintrivir], which “IC50” value (EV68-3C protease [2]) is on record?
Its value is 7.8 ± 0.6 nM.
